This note sets out measurements from patent publication EP0359439A1, “Substituted pyridazinones” (ORION-YHTYMÄ OY, priority 1988, dated 1990).

The experiment concerns the target Canine Cardiac Phosphodiesterase III. The experiment in a line: Inhibition of Canine Cardiac Phosphodiesterase III enzyme. The class given is biochemical. Conditions: concentration showing 50% inhibition of Canine Cardiac Phosphodiesterase III enzyme; read-out: IC₅₀. An excerpt: In Table 5 the concentration of the compounds showing 50% inhibition of Canine Cardiac Phosphodiesterase III enzyme is given.

Structures are written as SMILES. Several values for one entry are separate records, joined by “and”; a condition that tells them apart may be missing. Identical values can stand only once.

In the case of `CC1(C)C(=O)Nc2cc3nc(-c4ccncc4)[nH]c3cc21` [BM 14.478, 5,7-Dihydro-7,7-dimethyl-2-(4-pyridinyl)-pyrrolo-(2,3-f)benzimidazol-6(1H)-one, reference compound], the IC50 was determined as 940 nM.

Regarding `O=C1CCC(c2ccc(N=Cc3ccc(O)cc3O)cc2)=NN1` [Compound A, 6-[4-(2,4-Dihydroxyphenyl)methyleneaminophenyl]-4,5-dihydropyridazin-3(2H)one], the IC50 was 1700 nM. Under `O=C1CCC(c2ccc(N=C(c3ccccc3)c3ccc(O)cc3O)cc2)=NN1` [Compound C] stands 19 nM; under `CC(=Nc1ccc(C2=NNC(=O)CC2C)cc1)c1ccc(O)cc1O` (stereo not drawn) [Compound D, 6-[4-(1-(2,4-Dihydroxyphenyl)ethylidene)aminophenyl]-4,5-dihydro-5-methylpyridazin-3(2H)one], 60 nM and 100 nM; under `CCC(=Nc1ccc(C2=NNC(=O)CC2)cc1)c1ccc(O)cc1O` [Compound E, 6-[4-(1-(2,4-Dihydroxyphenyl)propylidene)aminophenyl]-4,5-dihydropyridazin-3(2H)one], 390 nM. The result for `O=C1CCC(c2ccc(N=Cc3c(O)ccc4ccccc34)cc2)=NN1` [Compound F, 6-[4-(2-hydroxynaphtyl)methyleneaminophenyl]-4,5-dihydropyridazin-3(2H)one] reads above 10000 nM; that for `CC(=Nc1ccc(-c2ccc(=O)[nH]n2)cc1)c1ccc(O)cc1O` [Compound H, 6-[4-(1-(2,4-Dihydroxyphenyl)ethylidene)aminophenyl]pyridazin-3(2H)one], 140 nM; that for `O=C1CCC(c2ccc(N=C(CCc3ccccc3)c3ccc(O)cc3O)cc2)=NN1` [Compound L, 6-[4-(1-(2,4-dihydroxyphenyl)-3-phenylpropylidene)aminophenyl]-4,5-dihydropyridazin-3(2H)one], 2 nM.

Turning to `COc1ccc(-c2nc3cc(C4=NNC(=O)CC4C)ccc3[nH]2)cc1` (stereo not drawn) [Pimobendan, 4,5-Dihydro-6-(2-(4-methoxyphenyl)-1H-benzimidazol-5-yl)-5-methyl-3(2H)-pyridazinone, reference compound], the IC50 is 2000 nM and 1500 nM.
